Assay results as given in US20170157260A1, “Glycosylated Polypeptide and Drug Composition Containing said Polypeptide” (Glytech, Inc., priority 2011, published 2017).

Key:
[1] = system: growth hormone (GH) production; assay: GH production suppression test with rats; assay type: in vivo; conditions: Table 7 (Example 86), subcutaneous, 1 hour before GRF, plasma GH 5 minutes after GRF, vehicle 861
Description: This experimental line was carried out as a test line that can evaluate the pharmacological action of the glycosylated form on SSTR and its residence in blood after administration, with blood GH production amount as an indicator.
Moreover, GRF (GH releasing hormone, Growth hormone releasing factor) was used as the GH release enhancer. […] As heparin employed as the anticoagulant when collecting blood, Japanese Pharmacopeia heparin sodium injectable solution (Lot. B084, from Mochida Pharmaceutical Co., Ltd.) was used directly as stock solution.
As the control group, saline without glycosylated polypeptide was similarly administered (vehicle group). […] One hour after administration of the glycosylated form, i.e. after 50 minutes or more had passed under anesthesia, GRF was administered as the GH release enhancer to the tail vain at a dosage of 1 mL/kg with a glass syringe and an injection needle. Five minutes after administration of GRF, blood was collected from the rat cervical vein with a glass syringe containing heparin and an injection needle. 0.4 mL of the collected blood was left on ice for 20 minutes or more, then centrifuged (1,870×g, 4° C., 10 minutes), and 100 μL of the supernatant was taken as the plasma sample. As blank plasma, plasma obtained by similarly treating the blood collected from untreated rat cervical vein was employed. Plasma samples were frozen in storage until employed for measurement.
The plasma sample was diluted with the assay buffer supplied in the EIA kit to 20, 100, and 500-folds as measurement samples. […] By multiplying the results obtained and the dilution ratio, the GH concentration was calculated.

[2] = system: rat gastrointestinal obstruction model; assay: Gastrointestinal obstruction model: intestinal fluid weight; assay type: in vivo, rats; conditions: Table 9; jejunum, 1 hour after subcutaneous administration of 40 μM solution at 1 mL/kg, 18 hours after ligation
Description: (§1) This experimental line was carried out as a test line to evaluate the promotion of intestinal fluid absorption or the secretory suppressing action, using the change in the intestinal fluid weight in the jejunum after bowel obstruction as an indicator. Moreover, blood parameters of deviation enzymes amylase (pancreas), lactate dehydrogenase (LDH, liver), and creatine phosphokinase (CPK, skeletal muscle, cardiac muscle etc.) were measured as indicators of tissue disorders.
Anesthesia was introduced with inhalation of 2% isoflurane and laughing gas:oxygen=7:3, and this was maintained throughout the surgery. A median incision was made in the abdomen, and the jejunum at about 10 cm from the musculus suspensorius duodeni was ligated with a surgical suture. Then, the incision site was promptly sutured, and the rats were fasted until compound administration. […]
One hour after compound administration, a median incision was made in the abdomen under inhalation anesthesia, and 1.5 mL of blood was collected from the abdominal vena cava. […] The fluid and blood on the jejunum surface were removed with a paper towel, nerves, blood vessels, and fat attached to the jejunum was removed, this was cut into 6 cm lengths, and wet weight was measured. This was then dried at 36 degrees for 24 hours, and dry weight was measured.

[3] = system: rat gastrointestinal obstruction model; assay: Gastrointestinal obstruction model: blood parameters (amylase, LDH, CPK); conditions: Table 10; blood 1 hour after subcutaneous administration
Description: as §1
Anesthesia was introduced with inhalation of 2% isoflurane and laughing gas:oxygen=7:3, and this was maintained throughout the surgery. A median incision was made in the abdomen, and the jejunum at about 10 cm from the musculus suspensorius duodeni was ligated with a surgical suture. Then, the incision site was promptly sutured, and the rats were fasted until compound administration. In the sham treatment group, ligation of the jejunum was not performed, but the treatment of suturing the incision site after a median incision was made in the abdomen was performed.
Eighteen hours after the gastrointestinal obstruction surgery, this was subcutaneously administered into the dorsal cervix at a dosage of 1 mL/kg with a glass syringe and a 25 G injection needle (all from Terumo Corporation). As the vehicle group, saline without glycosylated polypeptide was similarly administered.
One hour after compound administration, a median incision was made in the abdomen under inhalation anesthesia, and 1.5 mL of blood was collected from the abdominal vena cava. Then, the ligated jejunum on the musculus suspensorius duodeni side was resected. The fluid and blood on the jejunum surface were removed with a paper towel, nerves, blood vessels, and fat attached to the jejunum was removed, this was cut into 6 cm lengths, and wet weight was measured. This was then dried at 36 degrees for 24 hours, and dry weight was measured.
The measuring methods employed were BG5B, UV-rate, and JSCC methods, respectively.

Row | Molecule | GH ([1]; dose 10 nmol/kg) [ng/mL] | GH ([1]; dose 100 nmol/kg) [ng/mL] | Intestinal fluid weight [2] [mg] | amylase activity compared to the vehicle (in words) [3] | other results
1 | 29C(disialo)-SRIF28 [Example 13] | 497 | 88.5 |  |  | 
2 | C[C@@H](O)[C@@H]1NC(=O)[C@H](CCCCN)NC(=O)[C@@H](Cc2c[nH]c3ccccc23)NC(=O)[C@H](Cc2ccccc2)NC(=O)[C@@H](NC(=O)[C@H](N)Cc2ccccc2)CSSC[C@@H](C(=O)N[C@H](CO)[C@@H](C)O)NC1=O [Octreotide, reference compound] |  |  | 693 ± 48 |  | 
3 | N19C(disialo)-SRIF28 [Example 10] | 563 | 1.5 |  |  | 
4 | S1-2C(asialo)-SRIF28 [Example 28] |  |  | 566 ± 34 |  | 
5 | S1C(disialo)-SRIF28 [Example 1] |  |  |  | low value compared to the vehicle | 
6 | C(disialo)-R-K-SRIF14 [Example 18] |  |  |  | low value compared to the vehicle | LDH activity compared to the vehicle (in words) [3]: low value compared to the vehicle
